Results taken from patent US20080280920A1, “Plasminogen Activator Inhibitor-1 Inhibitors” (priority 2005, published 2008).

Target: T1, wildtype human PAI-1 (Homo sapiens, UniProt P05121)
T1 construct: purchased Molecular Innovations Lot# HWT-804
Test: PAI-1/uPA assay (residual uPA activity, fluorescent substrate SpectroFluor)
Assay type: biochemical
Settings: for Percent PAI-1 inhibition: at the concentration given, percent of activity of untreated PAI-1; for Conc. of compound required for PAI-1 inhibition: concentration giving the percent inhibition, 6 nM PAI-1, 8 nM uPA; for Conc. of compound required for PAI-1 inhibition (result in words): within the concentration range tested
Protocol: Principle: The assay is based on using a fluorescent substrate (SpectroFluor) to measure residual uPA following inhibition of uPA by PAI-1. PAI-1 used in the assay is pre-treated in the presence of increasing concentrations of the lead compounds to screen for any inhibitory effects on PAI-1. Method: This assay was performed in 96 well microtiter plates. The concentrations of uPA (8 nM) and PAI-1 (6 nM) used in this assay were carefully optimized when using the fluorescent substrate, SpectroFluor™. Stock solutions (10 mM) of all lead compounds were prepared fresh in DMSO. […] 20 μl of 6 nM wildtype human PAI-1 (Molecular Innovations, Lot# HWT-804) was incubated for 15-20 minutes at room temperature in 96 well microtiter plates either with buffer, (50 mM HEPES, 150 mM NaCl, 0.05% Tween-20, 1% BSA, pH 6.6) or various concentrations (10 nM to 100 μM final concentration) of lead compounds in a total volume of 80 μl. A 20 μl aliquot of 8 nM uPA (HMW) solution in 0.05M Tris Buffered™ saline (TBS), pH 8.4 was added to each well and the mixture incubated for an additional 5 minutes at RT. The proteolytic reaction was initiated by addition of 50 μl of 0.1 mM SpectroFluor (Spectrozyme UK Fluorogenic substrate) to each well. The kinetics of the free chromophore, 7-amino-4-methylcoumarin (AMC) released in the course of peptide cleavage by the protease, uPA, was monitored for 30 minutes at 37° C. on a spectrofluorometric microplate reader with an excitation wavelength of 360 nm and emission wavelength of 440 nm. Kinetic data regarding the rate of substrate cleavage by uPA was acquired with Softmax PrO™ software. The difference between the residual uPA activity in the presence or absence of untreated PAI-1, at the molar ratio used, was considered as the “total” PAI-1 activity (100%). The inhibition of uPA by PAI-1 treated with lead compounds was expressed as a percentage of the initial activity of untreated PAI-1. Controls were performed during each experiment to ensure the nearly complete inhibition of uPA by untreated PAI-1 and also to ensure the absence of any direct effect of the lead compounds on uPA alone or on SpectroFluor.

T1 sequence (P05121 24-402): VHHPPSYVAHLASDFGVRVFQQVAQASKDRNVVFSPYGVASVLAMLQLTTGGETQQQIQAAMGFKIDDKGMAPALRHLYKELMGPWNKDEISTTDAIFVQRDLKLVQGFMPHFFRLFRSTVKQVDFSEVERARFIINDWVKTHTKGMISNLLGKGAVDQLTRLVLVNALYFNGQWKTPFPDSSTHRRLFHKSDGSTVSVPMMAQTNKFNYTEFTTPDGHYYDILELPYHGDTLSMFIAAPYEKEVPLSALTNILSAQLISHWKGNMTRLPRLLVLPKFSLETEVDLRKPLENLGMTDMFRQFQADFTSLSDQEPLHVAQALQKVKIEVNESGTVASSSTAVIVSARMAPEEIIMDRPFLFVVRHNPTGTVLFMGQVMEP

Structure (SMILES)	Percent PAI-1 inhibition	Conc. of compound required for PAI-1 inhibition [µM]	Conc. of compound required for PAI-1 inhibition (result in words)
Cl.O=C(N[C@@H](Cc1csc2ccccc12)C(=O)O)c1cncc(Br)c1 [Compound Q011265, (S)—N-(5-bromonicotinoyl)-3-(thianaphthen-3-yl)alanine hydrochloride]	20	1	–
CC(C)(C)OC(=O)Nc1ccc(O)c(C(=O)NCCO)c1 [Compound Q012021B, tert-Butyl 4-hydroxy-3-{[(2-hydroxyethyl)amino]carbonyl}phenylcarbamate]	25	10	–
CN1C(=N)N/C(=C\c2csc3ccccc23)C1=O [Compound Q012038]	35	10	–
CCOC(=O)[C@H](Cc1ccccc1)NC(=O)Nc1ccc2c(C)cc(=O)oc2c1 [Compound Q012053, (2S)-2-({[(4-Methyl-2-oxo-2H-chromen-7-yl)amino]carbonyl}amino)-3-phenylpropanoic acid ethyl ester]	44	10	–
CCOC(=O)[C@H](Cc1csc2ccccc12)NC(=O)COc1ccc2c(C)cc(=O)oc2c1 [Compound Q012055, (S)—N-[(4-methyl-2-oxo-2H-chromen-7-yl)oxyacetyl]-3-(thianaphthen-3-yl)alanine ethyl ester]	51	0.05	–
Cc1cc(=O)oc2cc(OCC(=O)N[C@@H](Cc3csc4ccccc34)C(=O)O)ccc12 [Compound Q012055A, (S)—N-[(4-methyl-2-oxo-2H-chromen-7-yl)oxyacetyl]-3-(thianaphthen-3-yl)alanine]	41	1	–
COc1cc(CNCCc2ccccn2)cc(CN2CCN(c3ccccn3)CC2)c1O [Compound Q012119T, 2-Methoxy-4-({[2-(pyridin-2-yl)ethyl]amino}methyl)-6-[(4-pyridin-2-ylpiperazin-1-yl)methyl]phenol]	–	–	No inhibition
CCOC(=O)[C@H](Cc1csc2ccccc12)NC(=O)COc1ccc2c(C(F)(F)F)cc(=O)oc2c1 [Compound Q012124, (2S)-2-({[2-oxo-4-(trifluoromethyl)-2H-chromen-7-yl]oxy}acetyl)amino-3-(thianaphthen-3-yl)propanoic acid ethyl ester]	13	0.05	–
O=C(COc1ccc2c(C(F)(F)F)cc(=O)oc2c1)N[C@@H](Cc1csc2ccccc12)C(=O)O [Compound Q012125, (2S)-2-({[2-oxo-4-(trifluoromethyl)-2H-chromen-7-yl]oxy}acetyl)amino-3-(thianaphthen-3-yl)propanoic acid]	–	–	No inhibition
CCOC(=O)[C@H](Cc1csc2ccccc12)NC(=O)[C@@H]1CCCN(C(=O)OC(C)(C)C)C1 [Compound Q012126, (2S)-3-(thianaphthen-3-yl)-2-({[(3R)—N-t-butyloxycarbonylpiperidin-3-yl]carbonyl}amino)propanoic acid ethyl ester]	19	50	–
CCOC(=O)[C@H](Cc1csc2ccccc12)NC(=O)[C@@H]1CCCNC1 [Compound Q012127, (2S)-3-(thianaphthen-3-yl)-2-({[(3R)-piperidin-3-yl]carbonyl}amino)propanoic acid ethyl ester]	13	250	–
CC(C)(C)OC(=O)N1CCC[C@@H](C(=O)N[C@@H](Cc2csc3ccccc23)C(=O)O)C1 [Compound Q012128, (2S)-3-(thianaphthen-3-yl)-2-({[(3R)—N-t-butyloxycarbonylpiperidin-3-yl]carbonyl}amino)propanoic acid]	14.5	10	–
O=C(N[C@@H](Cc1csc2ccccc12)C(=O)O)[C@@H]1CCCNC1 [Compound Q012129, (2S)-3-(thianaphthen-3-yl)-2-({[(3R)-piperidin-3-yl]carbonyl}amino)propanoic acid]	23	1	–
N=C(N)N1CCC[C@@H](C(=O)N[C@@H](Cc2csc3ccccc23)C(=O)O)C1 [Compound Q012130, (2S)-3-(thianaphthen-3-yl)-2-({[(3R)—N-[amino(imino)methyl]piperidin-3-yl]carbonyl}amino)propionic acid]	–	–	No inhibition
COc1cc(CNCc2ccc(C(=O)O)cc2)cc(CN2CCN(c3ccccn3)CC2)c1O [Compound Q012136]	15	50	–
COc1cc(CNc2ccccn2)cc(CN2CCN(c3ccccn3)CC2)c1O [Compound Q012143]	22	250	–
COc1cc(CNc2ccc(C(=O)O)cc2)cc(CN2CCN(c3ccccn3)CC2)c1O [Compound Q012146]	–	–	No inhibition
COc1cc(CN[C@@H](Cc2ccccc2)C(=O)O)cc(CN2CCN(c3ccccn3)CC2)c1O [Compound Q012148]	–	–	No inhibition
O=C(O)c1cc(/C=C2\NC(=O)N(Cc3ccccc3)C2=O)ccc1O [Compound Q013012, 5-[(Z)-(1-benzyl-2,5-dioxoimidazolidin-4-ylidene)methyl]-2-hydroxybenzoic acid]	–	–	No inhibition
O=C1N/C(=C\c2csc3ccccc23)C(=O)N1Cc1csc2ccccc12 [Compound Q013018]	–	–	No inhibition
O=C1N/C(=C\c2c[nH]c3ccccc23)C(=O)N1Cc1ccccc1 [Compound Q013019]	–	–	No inhibition
CN(C)CCSc1ccc(/C=C2\NC(=O)N(Cc3ccc(OCc4ccccc4)cc3)C2=O)s1 [Compound Q013021]	25	1	–
COc1cc(/C=C2\NC(=O)N(Cc3ccc(O)cc3)C2=O)cc(CN2CCN(C)CC2)c1O [Compound Q013024]	–	–	No inhibition
COc1cc(/C=C/C(=O)CC(=O)/C=C/c2ccc(O)c(OC)c2)ccc1O [Curcumin, curcumin, reference compound]	22	0.5	–
